According to PMC8071544, “Synthesis and Bioactivities of Marine Pyran-Isoindolone Derivatives as Potential Antithrombotic Agents” (Marine Drugs, 2021):

Assays:
pro-uPA and plasminogen = biological target: T1, pro-uPA and plasminogen (Homo sapiens, UniProt P00747); assay: Fibrinolytic activity in vitro (reciprocal activation of pro-uPA and plasminogen, urokinase activity by chromogenic substrate S-2444); format: biochemical; conditions: for fibrinolytic activity (in words): compared with FGFC1; for EC50 (fibrinolytic activity): in vitro, slope of kinetic curve A405 nm, S-2444, mean of two independent experiments
T1 construct: purchased Sigma Aldrich (China)
Experimental: To evaluate the antithrombotic effect, all the synthesized FGFC1 derivatives were tested for their fibrinolytic activities in vitro. Fibrinolytic activity of each compound was expressed as 50% effective concentration (EC50), and FGFC1 was used as a positive control. The reciprocal activation of pro-uPA catalyzed plasminogen, which was measured based on urokinase activity by a chromogenic substrate S-2444. EC50 was calculated with the slope of kinetic curve of enzymatic reaction based on the reciprocal activation of pro-uPA and plasminogen (Figure 1 and Figure 2). The effect of introducing different hydrophobic moieties/groups to C-2, C-2′ and C-1′′ positions of FGFC1 was investigated by replacement of the protons on C2-OH/C2′-OH moieties and C1′′-COOH position, with methyl, ethyl, propyl, and bromo-substituted benzyl halide groups to yield derivatives F1–F7 (purity > 98% by HPLC analysis), which presented different urokinase activities and reciprocal activation of Pro-uPA-catalyzed plasminogen in vitro.
The fibrinolytic activities of compounds FGFC1 and derivatives F1–F7 were evaluated by plasmin method. Tris-HCl buffer solution (100 mmol/L, NaCl, pH 7.4), plasminogen (plg), BSA, and S-2444 were used as substrates. Derivatives F1–F7 dissolved in 0.05 mol/L Tris-HCl buffer containing NaCl (100 mmol/L) at pH 7.4 and the BSA used as a substrate.The concentrations of plg, BSA and S-2444 were 1.5 μmol/L, 5 μmol/L and 4 nmol/L, respectively. They were prepared in a 96-well microplate. After the predetermined sample solutions (compounds FGFC1 and F1–F7) were added, pro-uPA (20 μmol/L) was added into the 96-well microplate. The microplate was then cultivated at 37 °C for 60 min. The continuous variation trend of absorbance was determined for evaluation of fibrinolytic activity on the slope of the plots of A405 nm within 150 min. In the blank group, an equal volume of Tris-HCl solution was used as a blank control. All sample solutions were prepared by adding a small amount of DMSO (<5%, v/v) solution to dissolve the derivatives.

HeLa cells = assay: MTT cytotoxicity assay on HeLa cells; format: cell-based, human; conditions: 0.25, 0.5, 1.0 mg/mL, Figure 2A
Experimental: (§1) The cytotoxicity of FGFC1 and derivative F6 on HeLa cell lines was screened by MTT assay. […] The introduction of substituted benzyl halide to the C-2, C-2′ and C-1″ position of FGFC1 decreased cytotoxicity, which increased with increasing concentration (0.25, 0.5, 1.0 mg/mL). Moreover, to evaluate the possible apoptosis of HeLa cells induced by F6, Fas/APO-1 (a type of cell-surface NGF/TNF receptor in cancer cell) assay was carried out (Figure 2B). To evaluate the immunogenic (inflammation) property, interleukin (IL-1) levels of derivative F6 was also tested by the IL-1 assays (Figure 2C). […] This meant that the ability of F6 to induce apoptosis was weaker than that of FGFC1. […] According to Figure 2B and Figure 2C, the negative effect of F6 on tissue cell was weaker than that of FGFC1.
HeLa (human cervical carcinoma) cells were incubated in medium (10% fetal bovine serum, 1% penicillin, 1% streptomycin) at 37 °C with 95% air and 5% CO2. Cells were passaged every 2–3 d and select exponential growth cells were used for further experiments.
The cell growth inhibitory activity of FGFC1 and derivative F6 on HeLa cell lines were determined by the MTT (3-(4,5-dimethylthiazol-2yl)-2,5-diphenyl tetrazolium bromide) assay as we previously reported. In addition, an equal volume of DMEM medium was added to the blank group.

IL-1 = IL-1 ELISA assay on HeLa cells; format: cell-based, human; conditions: Figure 2C, compared with blank and FGFC1
Experimental: as §1
The cell culture method on the 96-well plate is in accordance with that in the MTT assay. The Elisa kit assay based on IL-1 of HeLa cells was consistent with the Fas/Apo-1 Elisa kit assay.

Fas/Apo-1 = Fas/Apo-1 ELISA assay on HeLa cells; format: cell-based, human; conditions: Figure 2B, compared with blank and FGFC1
Experimental: as §1
Fas/Apo-1 assay was carried out according to the manufacturer’s protocol. A blank control group was set up. It was not added with the samples (FGFC1 and derivative F6) and the enzyme standard reagent, and the other steps were the same. The standard curve group and the sample group were tested. On the 96-well plate, the standard curve group was supplemented with 50 μL of the standard. […] After the addition of stop solution to reaction wells, the absorbance was recorded at OD 450 nm on an Enzyme-Labeled (microplate reader) Instrument after 15 min.

T1 sequence (P00747 20-810 limits assumed): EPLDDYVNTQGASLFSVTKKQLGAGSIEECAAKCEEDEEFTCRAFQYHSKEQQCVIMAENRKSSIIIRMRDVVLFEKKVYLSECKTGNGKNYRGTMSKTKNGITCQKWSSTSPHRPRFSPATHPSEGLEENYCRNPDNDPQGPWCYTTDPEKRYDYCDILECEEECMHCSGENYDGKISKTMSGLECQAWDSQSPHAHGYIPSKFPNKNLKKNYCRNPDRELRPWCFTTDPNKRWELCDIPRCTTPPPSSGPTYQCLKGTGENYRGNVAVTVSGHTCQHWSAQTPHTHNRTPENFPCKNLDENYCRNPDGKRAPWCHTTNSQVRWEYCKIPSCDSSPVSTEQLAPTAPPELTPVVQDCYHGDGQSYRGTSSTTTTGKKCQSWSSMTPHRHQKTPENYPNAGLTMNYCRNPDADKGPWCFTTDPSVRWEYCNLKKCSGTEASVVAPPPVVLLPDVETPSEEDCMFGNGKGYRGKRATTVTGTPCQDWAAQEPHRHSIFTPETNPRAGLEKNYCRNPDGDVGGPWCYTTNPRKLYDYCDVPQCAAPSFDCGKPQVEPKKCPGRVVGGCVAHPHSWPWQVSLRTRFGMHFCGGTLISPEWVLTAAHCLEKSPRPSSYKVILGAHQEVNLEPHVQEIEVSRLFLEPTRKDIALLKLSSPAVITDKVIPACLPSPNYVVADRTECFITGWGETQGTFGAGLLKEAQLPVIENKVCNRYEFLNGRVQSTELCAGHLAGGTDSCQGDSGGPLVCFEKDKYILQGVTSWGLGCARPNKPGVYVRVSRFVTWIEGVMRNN

CC(C)=CCC/C(C)=C/CC[C@@]1(C)Oc2c(c(OCc3ccccc3Br)cc3c2CN(CCC[C@H](C(=O)OCc2ccccc2Br)N2Cc4c(cc(OCc5ccccc5Br)c5c4O[C@](C)(CC/C=C(\C)CCC=C(C)C)[C@H](O)C5)C2=O)C3=O)C[C@H]1O [F7] was tested, and the “fibrinolytic activity (in words)” value (pro-uPA and plasminogen) was “retained fibrinolytic activity” and the “EC50 (fibrinolytic activity)” value (pro-uPA and plasminogen) was 119.6 µM.

For CC(C)=CCC/C(C)=C/CC[C@@]1(C)Oc2c(c(OCc3ccc(C#N)cc3)cc3c2CN(CCC[C@H](C(=O)OCc2ccc(C#N)cc2)N2Cc4c(cc(OCc5ccc(C#N)cc5)c5c4O[C@](C)(CC/C=C(\C)CCC=C(C)C)[C@H](O)C5)C2=O)C3=O)C[C@H]1O [F4], the “EC50 (fibrinolytic activity)” value (pro-uPA and plasminogen) was 82.8 µM.

With CCOC(=O)[C@@H](CCCN1Cc2c(cc(OCC)c3c2O[C@](C)(CC/C=C(\C)CCC=C(C)C)[C@H](O)C3)C1=O)N1Cc2c(cc(OCC)c3c2O[C@](C)(CC/C=C(\C)CCC=C(C)C)[C@H](O)C3)C1=O [F2] the “EC50 (fibrinolytic activity)” value (pro-uPA and plasminogen) was 87.1 µM.

For CC(C)=CCC/C(C)=C/CC[C@@]1(C)Oc2c(c(OCc3ccc(OC(F)(F)F)cc3)cc3c2CN(CCC[C@H](C(=O)OCc2ccc(OC(F)(F)F)cc2)N2Cc4c(cc(OCc5ccc(OC(F)(F)F)cc5)c5c4O[C@](C)(CC/C=C(\C)CCC=C(C)C)[C@H](O)C5)C2=O)C3=O)C[C@H]1O [F5], the “fibrinolytic activity (in words)” value (pro-uPA and plasminogen) was “markedly decreased the fibrinolytic activity” and the “EC50 (fibrinolytic activity)” value (pro-uPA and plasminogen) was 133.3 µM.

For CCCOC(=O)[C@@H](CCCN1Cc2c(cc(OCCC)c3c2O[C@](C)(CC/C=C(\C)CCC=C(C)C)[C@H](O)C3)C1=O)N1Cc2c(cc(OCCC)c3c2O[C@](C)(CC/C=C(\C)CCC=C(C)C)[C@H](O)C3)C1=O [F3], the “EC50 (fibrinolytic activity)” value (pro-uPA and plasminogen) was 66.6 µM.

CC(C)=CCC/C(C)=C/CC[C@@]1(C)Oc2c(c(O)cc3c2CN(CCC[C@H](C(=O)O)N2Cc4c(cc(O)c5c4O[C@](C)(CC/C=C(\C)CCC=C(C)C)[C@H](O)C5)C2=O)C3=O)C[C@H]1O [FGFC1, 2,5-Bis-[8-(4,8-dimethyl-nona-3,7-dienyl)-5,7-dihydroxy-8-methyl-3-keto-1,2,7,8-teraahydro-6H-pyran[a]isoindol-2-yl]-pentanoic acid, reference compound] was tested, and the “EC50 (fibrinolytic activity)” value (pro-uPA and plasminogen) was 115.0 µM and the “cytotoxicity on HeLa cell lines” value (HeLa cells) was “moderate cytotoxicity”.

CC(C)=CCC/C(C)=C/CC[C@@]1(C)Oc2c(c(OCc3ccc(Br)cc3)cc3c2CN(CCC[C@H](C(=O)OCc2ccc(Br)cc2)N2Cc4c(cc(OCc5ccc(Br)cc5)c5c4O[C@](C)(CC/C=C(\C)CCC=C(C)C)[C@H](O)C5)C2=O)C3=O)C[C@H]1O [F6] was tested, and the “expression level of IL-1” value (IL-1) was “obviously higher than that of blank, but it was less than that of FGFC1”, the “EC50 (fibrinolytic activity)” value (pro-uPA and plasminogen) was 42.3 µM and the “fibrinolytic activity relative to FGFC1” value (pro-uPA and plasminogen; ratio of EC50 vs FGFC1) was 2.72 fold. The “cytotoxicity on HeLa cell lines” value (HeLa cells) was “moderate cytotoxicity” and the “expression level of Fas” value (Fas/Apo-1) was “remarkably higher than that of the blank, but it was less than that of FGFC1”.

With COC(=O)[C@@H](CCCN1Cc2c(cc(OC)c3c2O[C@](C)(CC/C=C(\C)CCC=C(C)C)[C@H](O)C3)C1=O)N1Cc2c(cc(OC)c3c2O[C@](C)(CC/C=C(\C)CCC=C(C)C)[C@H](O)C3)C1=O [F1] the “EC50 (fibrinolytic activity)” value (pro-uPA and plasminogen) was 59.7 µM.
